# Results reported in ChEMBL document CHEMBL1201862, “PubChem BioAssay data set” (2004).
# Calls of active or inactive are those of the source. Unless noted, the calls are words filed in the database; no cut-off is given here.
# Experiments:
# [1] = biological target: Nuclear receptor subfamily 0 group B member 1 (Homo sapiens, UniProt P51843); type: functional, cell-based;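 further: HEK293T cells transfected with SF-1 and DAX-1 plus StAR promoter luciferase reporter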
# cells = type: functional, cell-based
# [2] = biological target: Fructose-bisphosphate aldolase (Mycobacterium tuberculosis, UniProt P9WQA3); test: Fluorescence-based biochemical high throughput dose response assay for inhibitors of the fructose-bisphosphate aldolase (FBA) of M. tuberculosis.; type: functional
# Beta Lactamase = Beta Lactamase (Pseudomonas aeruginosa, UniProt Q932Y6);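 further: confirmatory high-throughput screen measuring VIM-2 metallo-beta-lactamase inhibition by epi-absorbance in dose response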
# [3] = biological target: T1, Endoribonuclease toxin MazF (Escherichia coli K-12, UniProt P0AE70); test: activation of MazEF endoribonuclease cleavage – biochemical, fluorescence, single-stranded RNA substrate, uHTS hits, dose response (AID 588481); type: functional
# T1 sequence (P0AE70 whole entry): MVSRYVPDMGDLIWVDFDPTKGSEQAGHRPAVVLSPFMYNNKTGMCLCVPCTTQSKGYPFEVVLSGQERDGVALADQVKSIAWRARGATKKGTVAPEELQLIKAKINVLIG
# Beta-lactamase [4] = biological target: Beta-lactamase (Pseudomonas aeruginosa, UniProt Q79MP6);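 further: biochemical dose-response test of metallo-beta-lactamase enzyme inhibition, read out by epi-absorbance; purified recombinant IMP-1 metallo-beta-lactamase with nitrocefin as substrate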
# [5] = biological target: T1, Endoribonuclease toxin MazF; test: substrate-only fluorescence increase artefacts – biochemical, single-stranded RNase substrate, counter-screen for MazEF activator project, dose response (AID 588502); type: functional
# Beta-lactamase [6] = biological target: Beta-lactamase (Salmonella choleraesuis (strain SC-B67), UniProt Q5J463)
# [7] = biological target: Botulinum neurotoxin type F (Clostridium botulinum, UniProt P30996); test: High-throughput multiplex microsphere dose response for inhibitors of toxin protease, specifically Botulinum neurotoxin light chain F protease, compounds from Powder Set 01.; type: functional, Clostridium botulinum Bf; settings: read-out: EC50_MICROM
# [8] = biological target: T2, Botulinum neurotoxin type A (Clostridium botulinum (strain Hall / ATCC 3502 / NCTC 13319 / Type A), UniProt P0DPI1); test: Confirmatory FRET assay using full length substrates for Botulinum neurotoxin light chain A protease, with Powder Set01.; type: functional
# [9] = biological target: T2, Botulinum neurotoxin type A; test: High-throughput multiplex microsphere dose response for inhibitors of toxin protease, specifically Botulinum neurotoxin light chain A protease, compounds from Cherry Pick 01.; type: functional; settings: read-out: EC50_MICROM
# [10] = biological target: T2, Botulinum neurotoxin type A; test: High-throughput multiplex microsphere dose response for inhibitors of toxin protease, specifically Botulinum neurotoxin light chain A protease, compounds from Powder Set 01.; type: functional, Clostridium botulinum A str. ATCC 3502; settings: read-out: EC50_MICROM
# Lethal factor = Lethal factor (Bacillus anthracis, UniProt P15917); test: High-throughput multiplex microsphere dose response for inhibitors of toxin protease, specifically Lethal Factor protease, compounds from Powder Set 01.; type: functional, Bacillus anthracis str. A2012; settings: read-out: EC50_MICROM
# [11] = reduction of Shn3 3'UTR-driven luciferase in osteoblasts – cell-based, Clone20 osteoblasts, firefly luciferase, cherry-picked, dose response (AID 624132); type: functional;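 further: firefly luciferase luminescence from reporter carrying the Shn3 3'UTR in osteoblasts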
# [12] = non-specific 3'UTR reporter inhibition in Clone20-Shn3RL – cell-based, Renilla luciferase, cherry-picked, counter-screen for Shn3 inhibitor project, dose response (AID 624133); type: functional
# [13] = cAMP pathway inhibition in counterscreen cell line – TR-FRET cAMP detection, counter-screen for MC4R biased antagonist project, dose response (AID 602305); type: functional, cell-based;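 further: U2OS cells stimulated with forskolin near its EC80 as the cAMP inducer; potency is for inhibition of forskolin-stimulated cAMP signaling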
# Melanocortin receptor 4 = Melanocortin receptor 4 (Homo sapiens, UniProt P32245); test: inhibitors of MC4R cAMP signaling – cell-based, TR-FRET, biased antagonists, dose response (AID 602298); type: functional;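 further: antagonist potency against agonist-stimulated cAMP production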
# [14] = loss of viability in HepG2 cells – cell-based, CellTiter-Glo, cherry-picked, cytotoxicity control for Shn3 inhibitor project, dose response (AID 624134); type: functional
# Beta-galactosidase = Beta-galactosidase (Escherichia coli, UniProt Q8VNN2); test: Dose response counterscreen for EBI2 assay utilizing the enzyme, b-galactosidase.; type: functional
# Beta-galactosidase, sequence (Q8VNN2 whole entry): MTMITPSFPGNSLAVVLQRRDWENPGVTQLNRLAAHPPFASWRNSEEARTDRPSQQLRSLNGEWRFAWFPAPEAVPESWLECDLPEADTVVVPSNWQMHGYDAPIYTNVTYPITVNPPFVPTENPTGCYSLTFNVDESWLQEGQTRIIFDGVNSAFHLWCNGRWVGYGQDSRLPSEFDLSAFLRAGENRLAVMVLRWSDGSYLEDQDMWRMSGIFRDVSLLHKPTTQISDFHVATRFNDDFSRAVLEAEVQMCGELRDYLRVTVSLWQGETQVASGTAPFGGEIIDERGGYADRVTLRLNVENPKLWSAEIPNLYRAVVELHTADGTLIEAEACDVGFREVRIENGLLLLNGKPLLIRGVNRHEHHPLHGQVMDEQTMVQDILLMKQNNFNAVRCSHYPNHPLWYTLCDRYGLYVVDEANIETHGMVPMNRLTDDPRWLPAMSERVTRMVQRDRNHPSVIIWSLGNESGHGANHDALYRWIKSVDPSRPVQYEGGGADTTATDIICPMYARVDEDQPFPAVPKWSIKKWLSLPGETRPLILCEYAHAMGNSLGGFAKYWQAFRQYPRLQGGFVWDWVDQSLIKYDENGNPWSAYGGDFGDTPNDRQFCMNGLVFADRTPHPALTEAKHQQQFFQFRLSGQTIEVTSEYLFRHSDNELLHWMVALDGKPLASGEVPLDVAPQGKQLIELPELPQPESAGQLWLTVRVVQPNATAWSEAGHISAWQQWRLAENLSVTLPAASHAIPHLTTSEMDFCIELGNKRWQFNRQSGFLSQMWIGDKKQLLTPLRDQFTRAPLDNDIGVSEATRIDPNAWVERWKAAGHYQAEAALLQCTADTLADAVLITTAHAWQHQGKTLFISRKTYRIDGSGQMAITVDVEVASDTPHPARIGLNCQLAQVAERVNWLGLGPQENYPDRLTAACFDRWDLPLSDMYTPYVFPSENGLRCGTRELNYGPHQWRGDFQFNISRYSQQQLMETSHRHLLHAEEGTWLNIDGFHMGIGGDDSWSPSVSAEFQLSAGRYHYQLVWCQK
# T2 sequence (P0DPI1 2-448 limits assumed): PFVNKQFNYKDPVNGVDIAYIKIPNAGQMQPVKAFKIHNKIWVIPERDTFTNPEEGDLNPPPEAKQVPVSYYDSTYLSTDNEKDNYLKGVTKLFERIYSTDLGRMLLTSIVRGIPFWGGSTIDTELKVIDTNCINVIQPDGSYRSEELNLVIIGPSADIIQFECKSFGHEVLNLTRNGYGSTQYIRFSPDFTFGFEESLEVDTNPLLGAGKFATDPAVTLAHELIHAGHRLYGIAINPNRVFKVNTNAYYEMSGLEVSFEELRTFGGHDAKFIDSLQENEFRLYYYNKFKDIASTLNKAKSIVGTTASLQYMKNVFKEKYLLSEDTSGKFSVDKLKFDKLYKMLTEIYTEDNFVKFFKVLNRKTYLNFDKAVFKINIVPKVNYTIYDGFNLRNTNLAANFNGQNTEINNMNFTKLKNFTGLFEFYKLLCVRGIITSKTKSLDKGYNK
# Nuclear receptor subfamily 0 group B member 1, sequence (P51843 whole entry): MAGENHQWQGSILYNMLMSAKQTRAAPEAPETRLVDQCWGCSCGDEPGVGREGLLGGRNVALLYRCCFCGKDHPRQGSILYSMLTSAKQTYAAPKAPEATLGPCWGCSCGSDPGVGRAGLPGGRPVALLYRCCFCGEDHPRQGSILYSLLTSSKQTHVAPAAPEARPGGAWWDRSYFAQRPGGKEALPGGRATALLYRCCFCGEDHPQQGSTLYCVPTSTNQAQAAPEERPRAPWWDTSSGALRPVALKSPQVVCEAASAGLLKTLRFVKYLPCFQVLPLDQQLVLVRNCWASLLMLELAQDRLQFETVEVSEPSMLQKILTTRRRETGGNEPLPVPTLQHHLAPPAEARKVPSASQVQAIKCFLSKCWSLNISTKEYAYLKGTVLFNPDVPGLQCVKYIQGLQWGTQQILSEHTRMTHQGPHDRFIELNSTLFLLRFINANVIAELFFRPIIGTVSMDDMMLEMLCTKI
# Fructose-bisphosphate aldolase, sequence (P9WQA3 whole entry): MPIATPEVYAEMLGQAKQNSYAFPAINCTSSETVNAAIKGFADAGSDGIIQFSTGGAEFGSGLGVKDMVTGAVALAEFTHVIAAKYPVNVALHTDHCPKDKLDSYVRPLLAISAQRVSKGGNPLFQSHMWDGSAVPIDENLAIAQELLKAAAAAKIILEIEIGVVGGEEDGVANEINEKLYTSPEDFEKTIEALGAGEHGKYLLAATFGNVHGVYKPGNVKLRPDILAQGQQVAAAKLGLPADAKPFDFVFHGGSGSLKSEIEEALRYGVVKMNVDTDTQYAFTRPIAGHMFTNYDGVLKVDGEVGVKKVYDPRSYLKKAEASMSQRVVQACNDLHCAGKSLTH
# Beta-lactamase (Pseudomonas aeruginosa, UniProt Q79MP6), sequence (Q79MP6 whole entry): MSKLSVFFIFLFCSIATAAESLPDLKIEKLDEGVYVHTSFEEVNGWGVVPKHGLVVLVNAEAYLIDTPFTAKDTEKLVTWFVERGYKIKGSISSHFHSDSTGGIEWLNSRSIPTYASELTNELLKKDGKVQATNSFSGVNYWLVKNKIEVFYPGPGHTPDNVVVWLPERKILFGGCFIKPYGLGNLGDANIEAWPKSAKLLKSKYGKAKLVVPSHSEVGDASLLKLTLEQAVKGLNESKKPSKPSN
# Beta-lactamase (Salmonella choleraesuis (strain SC-B67), UniProt Q5J463), sequence (Q5J463 whole entry): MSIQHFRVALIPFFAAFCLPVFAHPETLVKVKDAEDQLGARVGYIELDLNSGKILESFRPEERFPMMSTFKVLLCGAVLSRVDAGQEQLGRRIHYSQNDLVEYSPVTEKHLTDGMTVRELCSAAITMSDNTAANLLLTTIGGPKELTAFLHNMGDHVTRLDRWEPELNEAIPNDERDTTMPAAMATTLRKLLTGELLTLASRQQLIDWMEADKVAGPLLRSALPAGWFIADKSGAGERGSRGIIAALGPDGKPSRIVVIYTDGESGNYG
# Lethal factor, sequence (P15917 whole entry): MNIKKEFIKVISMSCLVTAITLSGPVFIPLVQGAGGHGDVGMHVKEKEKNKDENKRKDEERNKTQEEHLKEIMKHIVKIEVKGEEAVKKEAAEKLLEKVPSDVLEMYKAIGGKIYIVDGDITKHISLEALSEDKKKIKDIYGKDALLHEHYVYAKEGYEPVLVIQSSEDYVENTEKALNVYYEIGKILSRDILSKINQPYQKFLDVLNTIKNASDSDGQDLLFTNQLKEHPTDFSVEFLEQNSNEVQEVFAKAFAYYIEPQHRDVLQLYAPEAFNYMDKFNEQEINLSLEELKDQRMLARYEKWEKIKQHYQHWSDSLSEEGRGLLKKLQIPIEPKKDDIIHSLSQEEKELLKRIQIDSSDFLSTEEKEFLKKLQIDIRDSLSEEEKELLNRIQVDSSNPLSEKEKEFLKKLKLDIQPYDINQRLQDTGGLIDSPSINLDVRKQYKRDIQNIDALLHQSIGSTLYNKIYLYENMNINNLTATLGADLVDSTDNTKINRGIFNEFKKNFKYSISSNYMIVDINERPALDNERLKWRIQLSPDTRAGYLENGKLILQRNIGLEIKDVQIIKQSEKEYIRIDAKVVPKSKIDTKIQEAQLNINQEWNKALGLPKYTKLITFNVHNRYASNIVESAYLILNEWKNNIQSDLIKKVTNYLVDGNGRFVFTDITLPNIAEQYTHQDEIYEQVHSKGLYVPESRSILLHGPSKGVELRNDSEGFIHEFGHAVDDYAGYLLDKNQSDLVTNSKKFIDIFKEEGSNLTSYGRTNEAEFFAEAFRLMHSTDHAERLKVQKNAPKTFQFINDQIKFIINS
# Botulinum neurotoxin type F, sequence (P30996 1-436 limits assumed): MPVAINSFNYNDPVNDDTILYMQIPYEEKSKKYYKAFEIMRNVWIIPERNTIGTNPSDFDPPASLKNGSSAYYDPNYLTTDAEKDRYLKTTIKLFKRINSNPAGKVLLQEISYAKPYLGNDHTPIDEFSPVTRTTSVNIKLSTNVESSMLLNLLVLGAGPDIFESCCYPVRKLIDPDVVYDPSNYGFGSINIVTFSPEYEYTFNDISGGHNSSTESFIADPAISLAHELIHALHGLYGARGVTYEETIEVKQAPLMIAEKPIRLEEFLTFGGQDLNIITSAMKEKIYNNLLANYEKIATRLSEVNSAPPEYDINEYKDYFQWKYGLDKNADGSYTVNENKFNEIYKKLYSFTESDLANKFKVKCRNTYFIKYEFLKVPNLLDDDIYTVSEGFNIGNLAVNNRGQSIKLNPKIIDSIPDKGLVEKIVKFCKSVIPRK
# Beta Lactamase, sequence (Q932Y6 whole entry): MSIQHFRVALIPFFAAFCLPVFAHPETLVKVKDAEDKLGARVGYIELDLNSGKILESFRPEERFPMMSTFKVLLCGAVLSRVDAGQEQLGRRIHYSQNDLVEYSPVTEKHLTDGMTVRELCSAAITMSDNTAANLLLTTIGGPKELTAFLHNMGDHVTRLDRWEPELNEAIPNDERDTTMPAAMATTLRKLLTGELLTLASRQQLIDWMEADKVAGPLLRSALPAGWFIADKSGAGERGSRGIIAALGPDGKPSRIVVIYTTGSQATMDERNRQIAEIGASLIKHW
# Melanocortin receptor 4, sequence (P32245 whole entry): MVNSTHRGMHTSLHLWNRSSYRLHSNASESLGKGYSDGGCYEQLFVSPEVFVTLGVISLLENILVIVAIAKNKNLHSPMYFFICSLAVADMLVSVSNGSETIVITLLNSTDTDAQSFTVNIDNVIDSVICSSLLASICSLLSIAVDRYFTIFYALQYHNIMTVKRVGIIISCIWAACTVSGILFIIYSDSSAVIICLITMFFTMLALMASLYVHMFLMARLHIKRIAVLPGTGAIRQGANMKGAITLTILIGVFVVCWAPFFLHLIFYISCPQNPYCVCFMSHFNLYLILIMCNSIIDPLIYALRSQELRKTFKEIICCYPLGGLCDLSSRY
compound,measurement,setting,value
CC1CCc2sc(C(=O)NC(C)C3CCCO3)cc2C1 (centres undefined),IC50,[1],> 67.5 µM (inactive)
same,IC50,cells,> 67.5 µM (inactive)
COc1ccc2oc(=O)c(C(=O)NCc3ccccn3)cc2c1,IC50,[2],1.53 µM (active)
Oc1ccc2ccccc2c1-c1sc(Nc2ccccc2)n[n+]1-c1ccc(F)cc1,IC50,Beta Lactamase,32 µM (inactive)
same,EC50,[3],> 99 µM (inactive)
same,IC50,Beta-lactamase [4],46.8 µM (inactive)
same,EC50,[5],> 99 µM (inactive)
same,IC50,Beta-lactamase [6],23.7 µM (inactive)
O=C(Nc1ccc2nc(-c3cccs3)c(-c3cccs3)nc2c1)N1CCOCC1,EC50,[7],9.6 µM (active)
same,EC50,[8],0.4 µM (active)
same,EC50,[9],15.5 µM (active)
same,EC50,[10],5.8 µM (active)
same,EC50,Lethal factor,7.6 µM (active)
O=C(CSc1c2c(nc3ccc(Cl)cc13)CCCC2)N1CCN(C(=O)c2ccco2)CC1,AC50,[11],3.75 µM (active)
same,AC50,[12],11.8 µM (active)
same,IC50,[13],> 64.6 µM (inactive)
same,IC50,Melanocortin receptor 4,> 64.6 µM (inactive)
same,AC50,[14],65.3 µM (active)
CN(Cc1ccccc1)C(=O)COc1ccc2ccccc2c1,IC50,Beta-galactosidase,> 80 µM (inactive)
